Measured values: US20070207975A1, “Materials and methods for treating and preventing Her-2/neu overexpressing, FAS-elevated cancer cells” (EVANSTON NORTHWESTERN HEALTHCARE, priority 2006, published 2007)

Columns and labels:
Breast Cancer Cells = assay: Effect of fatty acids, breast cancer cells (Table 2); format: cell-based; conditions: FAS named only for oleic acid
p185^Her-2/neu = assay: Flow cytometric analysis of cell surface-associated p185Her-2/neu; format: cell-based, human; conditions: for reduction of cell surface-associated p185^Her-2/neu expression: 10 mM OA, 48 hours, 0.1% FBS; for down-regulation of p185^Her-2/neu expression: OA 5 mM, trastuzumab 5 mg/ml
Text: FIG. 1. […] FIG. 2. […] The amount of cell surface-associated p185^Her-2/neu was quantified by flow cytometric analyses using a specific antibody against the extracellular domain of p185^Her-2/neu (Ab-5), as described herein. The mean fluorescence signal±SD (n=3) was quantified using the geo mean fluorescence (GM) parameter provided with the Cell Quest Software (Becton Dickinson). […] After labeling, cells were washed thoroughly, and localization of p185^Her-2/neu was detected by indirect immunofluorescence by incubating with FITC-conjugated anti-mouse IgG. After counterstaining with DAPI, cells were examined and photographed using a Zeiss fluorescent microscope equipped with a built-in camera. […] Before experiments, cells were serum-starved overnight and then cultured in IMEM containing 0.1% FBS in the absence or presence of GLA (Sigma Chemical Co., St. Louis, Mo.). GLA was prepared at a concentration of 1 mg/mL in ethanol and was added to a final concentration of 0, 5, 10, or 20 μg/mL; an equal volume of ethanol was added to control cells. […] A) Cell surface expression of Her-2/neu protein in BT-474 and SK-Br3 cells was determined by flow cytometry using a mouse anti-Her-2/neu antibody directed against the extracellular domain of the p185^Her-2/neu oncoprotein (clone Ab-5; Oncogene Research Products; San Diego, Calif.). Briefly, after GLA or control treatment, cells were washed, harvested, resuspended in phosphate-buffered saline (PBS) containing 1% FBS, and incubated with 5 μg/mL Ab-5 antibody for 1 hour at 4° C. The cells were washed again and then incubated with a fluorescein isothiocyanate (FITC)-conjugated anti-mouse IgG secondary antibody (Jackson ImnunoResearch Laboratories, West Grove, Pa.) diluted 1:200 in cold PBS containing 1% FBS for 45 minutes at 4° C. The cells were washed once more in cold PBS, and flow cytometric analysis was performed with a FACScalibur flow cytometer (Becton Dickinson, San Diego, Calif.) equipped with Cell Quest Software (Becton Dickinson). […] As a control for nonspecific immunofluorescence, cells were stained with the secondary antibody alone (solid black line). The mean fluorescence signal associated with cells for labeled p185^Her-2/neu was quantified using the Geo Mean (GM) fluorescence parameter provided with the software. […] B) Immunoblot analysis of Her-2/neu and PEA3 proteins in control- and GLA-treated BT-474 and SK-Br3 cells. […] Immunoreactive bands were detected by enhanced chemiluminescence reagent (Pierce, Rockford, Ill.). Blots were reprobed with an anti-β-actin goat polyclonal antibody (Santa Cruz Biotechnology) to control for protein loading and transfer. Densitometric values of protein bands were quantified using Scion Imaging Software (Scion Corp., Frederick, Md.).

BT-474 cells = assay: TUNEL apoptosis assay, BT-474; format: cell-based, human
Procedure: FIG. 6. […] The immunofluorescence photomicrographs of cells undergoing apoptosis (green staining) and the corresponding DAPI-counterstained photomicrographs are shown. […] Equal amounts of total protein (50 μg per lane) were subjected to Western blot analyses with a specific antibody against the p85 fragment of PARP, and then re-probed with a β-actin antibody. […] For each pair of columns, the height of the columns on the left represents the sum of the effect of each agent alone and, therefore, the expected apoptotic cell death if their effect was additive when used in combination. The total height of the columns on the right indicates the observed apoptosis when the agents were used in combination. […] A) Cell surface expression of Her-2/neu protein in BT-474 and SK-Br3 cells was determined by flow cytometry using a mouse anti-Her-2/neu antibody directed against the extracellular domain of the p185^Her-2/neu oncoprotein (clone Ab-5; Oncogene Research Products; San Diego, Calif.). […] The mean fluorescence signal associated with cells for labeled p185^Her-2/neu was quantified using the Geo Mean (GM) fluorescence parameter provided with the software. […] Immunoreactive bands were detected by enhanced chemiluminescence reagent (Pierce, Rockford, Ill.). […] Densitometric values of protein bands were quantified using Scion Imaging Software (Scion Corp., Frederick, Md.).

Structure (SMILES) | Effect of Fatty Acids: Breast Cancer Cells (Breast Cancer Cells) | reduction of cell surface-associated p185^Her-2/neu expression (p185^Her-2/neu; BT-474 cells) | down-regulation of p185^Her-2/neu expression (p185^Her-2/neu; BT-474 cells, alone or concurrently combined) [%] | reduction of cell surface-associated p185^Her-2/neu expression (p185^Her-2/neu; SK-Br3 cells) | down-regulation of p185^Her-2/neu expression (p185^Her-2/neu; SK-Br3 cells, alone or combined) [%] | TUNEL-positive cells (BT-474 cells; OA 5 μM, trastuzumab 10 μg/ml, alone or simultaneously, 72 hours) [%] | levels of cell surface-associated Her-2/neu protein versus vehicle-treated cells (p185^Her-2/neu; BT-474 and SK-Br3 cells, GLA 10 μg/mL for 48 hours) | cells that underwent apoptosis (TUNEL) (BT-474 cells; GLA 10 μg/mL, trastuzumab 10 μg/mL, alone or together, 48 hours)
CCCCCCCCC=CCCCCCCCC(=O)O [OA, 9-octadecenoic acid] | Down-regulates | up to 46% | 36 | up to 36% | 24 | 2 | – | –
CCCCCC=CCC=CCC=CCCCCC(=O)O [GLA, 6,9,12-octadecatrienoic acid] | Potent Down-regulator | – | – | – | – | – | substantially lower | 5% (95% confidence interval [CI]=4% to 6%)
